Publication PMC6992764 (Nature Communications, 2020)

Columns and labels:
peritoneal macrophages = assay: CCL2-induced pseudopodia protrusion of macrophages; format: cell-based, mice; conditions: 25 µM, 1 h pre-incubation
Method: Peritoneal macrophages were isolated from mice, seeded in the 8-well glass-based dishes (Life Technologies) and incubated overnight at 37 °C to allow the cells to adhere. After serum starvation for 6 h, cells were stimulated with chemokine at a concentration of 100 ng mL^–1, then fixed with 4% paraformaldehyde (Wako) and permeabilized with 0.1% Triton X-100 (Wako) in PBS, followed by staining with phalloidin conjugated with Alexa Fluor 594 (Life Technologies). […] Tumor macrophages were isolated from collagenase digestion of tumor tissue as attached cells by washing non-adherent cells away and further culturing them in DMEM containing 10 nM M-CSF (BD Biosciences) and 10% serum. After co-culture with LLC tumor cells, confocal images were obtained using an SP5 confocal microscope (Leica Microsystems). Cells were classified as lamellipodial/round-shaped or filopodial based on their morphology and the ratio of each type in the visual field determined.

C603S FROUNT = target: T1, C603S FROUNT (Homo sapiens, UniProt Q9BW27, C603S/L538E/P612S); assay: NMR titration of C603S FROUNT mutant; format: binding; conditions: 50 µM DSF, 50 µM mutant
T1 construct: 50 µM CRBD of FROUNT (a.a. 532–656) bearing the L538E/P612S mutations or its mutant (C603S); made in house
T1 sequence (Q9BW27 532-656 L538E/C603S/P612S): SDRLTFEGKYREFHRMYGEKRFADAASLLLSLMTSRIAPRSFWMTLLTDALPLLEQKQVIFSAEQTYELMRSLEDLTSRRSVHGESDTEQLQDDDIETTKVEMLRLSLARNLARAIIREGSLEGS
Method: All ^1H–^15N heteronuclear single quantum correlation (HSQC) NMR spectra were measured at 25 °C on a Bruker 600-MHz AVANCE III spectrometer with a cryogenic probe. […] The assignments of the backbone ^1H^N and ^15N NMR signals of CRBD were performed, based on the previous paper. […] Combined chemical shift differences Δδ was calculated by Δδ = [(ΔδHN)^2 + (ΔδN/6.5)^2]^1/2, where ΔδHN and ΔδN are the chemical shift differences for ^1H^N and ^15N, respectively.

[1] = target: T2, Full-length FROUNT protein (Homo sapiens, UniProt Q9BW27); assay: Surface plasmon resonance binding to FROUNT; conditions: SPR, concentration-dependent
T2 construct: made in house
T2 sequence (Q9BW27 1-656): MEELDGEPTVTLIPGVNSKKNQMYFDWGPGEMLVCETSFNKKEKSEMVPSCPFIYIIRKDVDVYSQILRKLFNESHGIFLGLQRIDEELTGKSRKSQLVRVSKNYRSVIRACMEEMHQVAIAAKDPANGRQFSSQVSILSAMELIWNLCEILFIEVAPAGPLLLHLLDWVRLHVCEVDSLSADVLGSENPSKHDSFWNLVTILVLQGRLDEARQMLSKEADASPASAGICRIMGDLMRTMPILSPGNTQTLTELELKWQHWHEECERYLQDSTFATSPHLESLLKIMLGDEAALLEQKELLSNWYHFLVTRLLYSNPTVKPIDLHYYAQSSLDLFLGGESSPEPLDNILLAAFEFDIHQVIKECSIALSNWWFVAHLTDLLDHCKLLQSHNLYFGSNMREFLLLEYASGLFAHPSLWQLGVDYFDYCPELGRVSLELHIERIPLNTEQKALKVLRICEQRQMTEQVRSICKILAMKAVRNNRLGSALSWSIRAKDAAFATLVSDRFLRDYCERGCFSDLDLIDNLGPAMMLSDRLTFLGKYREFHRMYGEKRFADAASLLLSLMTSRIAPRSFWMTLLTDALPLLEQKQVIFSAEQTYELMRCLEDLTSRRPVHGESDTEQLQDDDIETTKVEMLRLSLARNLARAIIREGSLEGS
Method: Interactions between FROUNT and library compounds were analyzed by surface plasmon resonance using a Biacore T100 (GE Healthcare). Full-length FROUNT protein or the FROUNT-binding region of CCR2 was immobilized on the CM5 sensor chip[56]. […] The resonance unit (RU) was measured during the binding and washing periods, and the binding kinetics were analyzed. Solvent correction with DMSO was performed using Biacore T100 evaluation software.

p53-MDM2 interaction = p53-MDM2 interaction (Homo sapiens, UniProt Q00987); assay: HTRF p53-MDM2 interaction counter assay; format: binding
p53-MDM2 interaction, sequence (Q00987 whole entry): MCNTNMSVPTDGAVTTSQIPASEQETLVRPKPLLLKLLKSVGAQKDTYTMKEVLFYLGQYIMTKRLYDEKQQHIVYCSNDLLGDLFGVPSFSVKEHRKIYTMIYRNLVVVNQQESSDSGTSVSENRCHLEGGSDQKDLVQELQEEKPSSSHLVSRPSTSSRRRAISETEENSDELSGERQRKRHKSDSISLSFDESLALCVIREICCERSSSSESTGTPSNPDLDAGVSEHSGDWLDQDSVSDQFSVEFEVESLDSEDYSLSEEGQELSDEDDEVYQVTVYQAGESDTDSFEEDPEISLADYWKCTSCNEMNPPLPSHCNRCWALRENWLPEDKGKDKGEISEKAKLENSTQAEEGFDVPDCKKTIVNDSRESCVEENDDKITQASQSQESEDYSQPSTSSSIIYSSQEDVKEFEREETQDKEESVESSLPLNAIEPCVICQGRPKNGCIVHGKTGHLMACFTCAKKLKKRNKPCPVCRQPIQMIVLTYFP

In the case of CCN(CC)C(=S)SSC(=S)N(CC)CC [DSF, disulfiram], the CCL2-induced pseudopodia protrusion (peritoneal macrophages) is reported as “inhibited”, the “binding to C603S FROUNT” value (C603S FROUNT) is reported as “No significant binding” and the “binding to FROUNT protein” value [1] is reported as “directly binds”. For the same compound, the “effect on p53-MDM2 interaction” value (p53-MDM2 interaction; HTRF) was “did not affect” and the IC50 (p53-MDM2 interaction; HTRF titration assay) was over 1 µM.
